According to patent publication US20090123545A1, “Rapid Onset and Short Term Modafinil Compositions and Methods of Use Thereof” (priority 2005, published 2009):
“And” between values parts separate entries of the source, which are not always exact repeats. Equal entries are not always repeated. “Also recorded” adds a separate entry of the source. Where two headings read alike, the source gives them in different places.

How the values were obtained:
extracellular dopamine = conditions: in vivo; cited from earlier work
[1] = cited from earlier work
dopamine reuptake pump = dopamine reuptake pump (Homo sapiens, UniProt Q01959); conditions: in vitro studies; cited from earlier work
Chain of dopamine reuptake pump (Q01959 whole entry): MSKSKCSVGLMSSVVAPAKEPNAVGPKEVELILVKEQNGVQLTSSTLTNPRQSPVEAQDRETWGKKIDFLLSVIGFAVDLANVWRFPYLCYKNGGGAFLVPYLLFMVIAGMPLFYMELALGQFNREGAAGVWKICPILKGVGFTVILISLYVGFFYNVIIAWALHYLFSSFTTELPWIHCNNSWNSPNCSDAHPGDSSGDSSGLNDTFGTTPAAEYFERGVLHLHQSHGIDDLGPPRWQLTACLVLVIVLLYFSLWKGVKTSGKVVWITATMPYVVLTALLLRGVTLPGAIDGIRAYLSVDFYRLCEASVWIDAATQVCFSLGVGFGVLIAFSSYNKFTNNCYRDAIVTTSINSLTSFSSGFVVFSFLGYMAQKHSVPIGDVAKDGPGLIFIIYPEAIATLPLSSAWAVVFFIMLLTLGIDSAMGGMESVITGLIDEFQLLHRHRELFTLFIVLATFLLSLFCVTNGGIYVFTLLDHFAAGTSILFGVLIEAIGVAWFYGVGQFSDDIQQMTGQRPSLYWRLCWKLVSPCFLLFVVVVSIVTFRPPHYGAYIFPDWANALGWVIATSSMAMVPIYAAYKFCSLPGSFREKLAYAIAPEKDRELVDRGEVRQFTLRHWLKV

normal human volunteer = assay: Double blind study of sub-lingual d-modafinil composition in a normal human volunteer; type: in vivo
Experimental: The test subject was given three vials: one vial containing the base formulation (as in Example 1) to test the taste and delivery means, and two coded vials. One of the coded vials contained 100 mg of d-modafinil formulation, and the second coded vial contained placebo (an equivalent amount of formulation).
The subject was instructed to place the contents of the test formulation under the tongue, to allow the formulation to dissolve over two minutes, and to rinse any residual material with some water.

normal human volunteers = assay: Double blind crossover study of sub-lingual d-modafinil in normal human volunteers (VAS, difficulty to fall asleep); type: in vivo; set-up: key to Visual Analog Scale (0 to 3), difficulty to fall asleep: 0: fell asleep as usual; 1: slight, noticeable change; 2: noticeable change; 3: extreme change (kept awake most of night); conditions: 200 mg sublingual, one hour before bedtime
Experimental: Two subjects received a set of coded vials containing either 200 mg of d-modafinil formulated according to Example 1 or an equivalent placebo formulation.
The subjects were given the following instructions:
Start testing at approximately the same time every evening, one hour before bedtime.
Randomly select one of the coded vials each day.
Open the vials and place the powder under your tongue.
Allow the powder to dissolve slowly for approximately 1-2 minutes.
After the powder is fully dissolved, you may drink some water.
Record observations in a Visual Analogue Scale (VAS) describing the difficulty to fall asleep.

mice = conditions: cited from earlier work

Compound	effect on extracellular dopamine (extracellular dopamine)	time to reach maximum plasma concentrations ([1]; after a single oral dose) [h]	half-life (T1/2) in the human body [1]	fraction of modafinil eliminated by the liver ([1]; ingestion of PROVIGIL tablets, humans) [%]	effect on reuptake of dopamine (dopamine reuptake pump)	effect on wakefulness (subject's report) (normal human volunteer; 200 mg Provigil at 10 p.m., same subject about one week before, not blinded)	amount in the circulation compared with l-modafinil ([1]; after use of racemic modafinil)	effect on wakefulness (subject's blinded report) (normal human volunteer; 100 mg sublingual at 11:15 p.m., one subject)	wakefulness effect compared with 200 mg racemic modafinil (normal human volunteer; 100 mg sublingual, same subject)	subject's reported observations on sleep and alertness (normal human volunteers)	Visual Analog Scale (0 to 3), difficulty to fall asleep (normal human volunteers; Subject 1, Subject 2)	pharmacological activity compared with the modafinil racemic compound (mice)	half-life (T1/2) in the human body ([1]; listed as 1-modafinil) [h]
NC(=O)C[S+]([O-])C(c1ccccc1)c1ccccc1 (racemic) [racemic modafinil, 2-[(diphenylmethyl)sulfinyl]acetamide]	increases extracellular dopamine	2 to 4	about 15 hours	≤ 90	inhibit the reuptake of dopamine	very pronounced effect	–	–	–	–	–	–	–
NC(=O)C[S@+]([O-])C(c1ccccc1)c1ccccc1 [d-modafinil, (d)-(+)-modafinil]	–	–	–	–	–	–	three times less	active	neither test substance kept them awake as strongly or as long as the 200 mg racemic modafinil	took longer than usual to fall asleep; also recorded: significantly more alert	1 and 2	same pharmacological activity	–
NC(=O)C[S@@+]([O-])C(c1ccccc1)c1ccccc1 [l-modafinil]	–	–	10 to 14 h	–	–	–	–	–	–	–	–	same pharmacological activity	13 to 16
